# Key:
# HeLa tumours = experiment: Tumour inhibition test, subcutaneous HeLa xenograft; format: in vivo, BALB/c nude mice
# Method: All animal studies were performed in accordance with the Institutional Animal Use and Care Regulations approved by the National Institutes of Health Clinical Center/Animal Care and Use Committee (NIH CC/ACUC). Athymic female nude mice (5–6 weeks old) were purchased from Beijing Huafukang Bioscience Co., Ltd., and raised in a specific-pathogen-free barrier facility. Tumour-bearing mice were established by subcutaneously injecting a suspension of 10^6 HeLa cells per mouse into the front flank of each nude mouse.
# After 14 days, the mice were sacrificed.
# [1] = Stability in human serum (UPLC-MS/MS); format: in vitro ADME; conditions: 10 μM in human serum
# Method: (Sigma, St. Louis, MO). Then, 9 µL Na125I (2.4 mCi) (Beijing Atom High Tech, Beijing, China) was added and the mixture was kept at room temperature for 1 h until the labeling ratio reached to more than 95%. For SPECT/CT imaging, a mixture of 50 mg kg-1 2 and 0.875 mg kg-1 125I labelled 2 (700 µCi) were intravenously administrated to investigate the distribution of 2/3 and 0.875 mg kg-1 125I labelled 2 (700 µCi) was administrated as a control. After anesthetization with 2% isoflurane in oxygen, SPECT and helical CT scans of the mice were performed at 2, 5, 7 and 25 h on a NanoScan SPECT/CT imaging system (Mediso, Budapest, Hungary).
# UPLC-MS/MS analyses: UPLC-MS/MS metabolomic analyses were performed using a Triple Quadrupole Liquid Chromatograph Mass Spectrometer (LCMS 8050, Shimadzu) in multiple reaction-monitoring mode (MRM). Data acquisition and processing were performed using LabSolutions version 5 software. Measurements were carried out at 40°C. […]
# Plasmatic stability of compound 2 and TCO-Dox: To evaluate the stability of 2 and TCO-Dox under physiologically relevant conditions, compounds were incubated in human serum and the amount of the remaining intact compound (the corresponding dephosphorylated 3 was detected as well) was determined by UPLC-MS/MS. […] After centrifugation at 1559 g for 7 min and filtration, 2 µL of the supernatant was analyzed by UPLC-MS/MS (n=5).
# [2] = Self-assembly and hydrogelation on addition of alkaline phosphatase (ALP); format: physicochemical
# Method: The synthesis of the assembly precursor (NapK(Tz)YpF, 2, Fig. 2a) was straightforward (see Supplementary Methods for a detailed protocol). Because KYF was determined to be an excellent self-assembly motif in a tri-peptide census survey, we constructed our assembling molecules based on this sequence. The conjugation of a strong π–π stacking moiety, namely, a naphthalene group, to the N terminus may further enhance the self-assembly potential of this molecule. Phosphorylation on tyrosine (Y) enabled the responsiveness of this motif to phosphatase. All of these components were sequentially conjugated via typical Fmoc-based solid-phase peptide synthesis (SPPS) to yield NapKYpF (1). The capability of self-assembly and hydrogelation of 1 was confirmed by the addition of 10 U mL^−1 alkaline phosphatase (ALP) into a solution of 1 (Supplementary Fig. 1). The dephosphorylated product of 1 formed transparent hydrogels with a network of uniform nanofibres (Supplementary Fig. 2), and the critical hydrogelation concentration was 1.0 mg mL^−1. The ε-amine of Lys on 1 was conjugated with the Tz derivative Tz-COOH (2-(4-(6-methyl-1,2,4,5-tetrazin-3-yl)phenyl) acetic acid) via an NHS-mediated ester–amide exchange reaction to yield 2. […] Upon the addition of ALP (10 U mL^−1) into the solution of 2, a transparent purple hydrogel was formed within 1 h (Fig. 2b inset), and the critical hydrogelation concentration was 1.0 mg mL^−1 (Supplementary Fig. 3). Similar to the formation of a typical hydrogel, investigation by transmission electron microscopy (TEM) confirmed the existence of numerous uniform nanofibres, each with a diameter of approximately 12 nm, which was close to that of hydrogel 1 (Fig. 2b).
# [3] = MTT cell viability / cytotoxicity assay, HUVECs; format: cell-based; conditions: human; 500 μM 2, 24 h, MTT
# Method: Cells were plated in flat-bottom 96-well plates at a density of 3 × 10^3 cells per well. After 12 h of cell attachment, the cell culture medium was replaced with 100 μL of pre-warmed media containing the compounds at different concentrations. After 24–72 h of incubation, cell proliferation was assessed by the MTT assay. A fresh mixture of 10 μL of thiazolyl blue tetrazolium bromide (MTT) and 90 μL of medium were freshly added to each well. After incubation for 4 h, the medium was gently removed. The formazan crystals that formed were dissolved in 110 μL of DMSO, and the absorbance was subsequently measured with a plate reader (Perkin Elmer) at 490 nm. EC50 values were calculated using Origin software. To measure the cytotoxicity of 2, HeLa cells, HUVECs, Saos-2 cells and CCC-HEH-2 cells were incubated with 100 μL of 1–500 μM 2 for 24 h, and then, cell viability was determined. To measure the cytotoxicity of TCO-Dox or Dox, HeLa cells, HUVECs, Saos-2 cells or CCC-HEH-2 cells were incubated with 200 μL of 0.001–10 μM TCO-Dox or Dox for 72 h, and the cell viability was determined. To determine the cytotoxicity of activated Dox, HeLa cells, HUVECs, […], and then, 2 was removed and 200 μL of 0.0001–10 μM TCO-Dox was added for 72 h of incubation, and cell viability was determined. […]
# Prodrug activation efficacy in cells: Cells were plated on flat bottom 96-well plates at a
# density of 3x10^3 cells per well. After 12 h attachment, cells were incubated with 100 µL
# 500 µM of 2 for 6 h before removing 2 and the addition of 200 µL 0.0001-10 µM of […]
smiles,measurement,setting,value
"Cc1nnc(-c2ccc(CC(=O)NCCCCC(NC(=O)Cc3ccc4ccccc4c3)C(=O)NC(Cc3ccc(OP(=O)(O)O)cc3)C(=O)NC(Cc3ccccc3)C(=O)O)cc2)nn1 (stereo not drawn) [compound 2, NapK(Tz)YpF]",histological examination of dissected tumours (HE staining),HeLa tumours; after treatment for 14 days,the HeLa cells remained normal
same,tumour growth,"HeLa tumours; i.v., three courses (day 0, 3, 6), 50 mg kg^−1 2, 30 mg kg^−1 TCO-Dox, 5 mg kg^−1 Dox, or 50 mg kg^−1 2 then 30 mg kg^−1 TCO-Dox after 2 h",rapid growth similar to that observed in the saline control group
same,stability in serum/plasma,[1],partially transformed to the dephosphorylated product 3 in plasma
same,time to formation of hydrogel,[2]; ALP 10 U mL^−1,≤ 1 h
same,critical hydrogelation concentration,[2]; after addition of 10 U mL^−1 ALP (dephosphorylated product),1.0 mg/mL
same,"viability at 24 h, 500 μM",[3],> 85%

# From PMC6261997, “Synergistic enzymatic and bioorthogonal reactions for selective prodrug activation in living systems” (Nature Communications, 2018)
